Measurements reported in ChEMBL document CHEMBL1201861, “Genomics of Drug Sensitity in Cancer screening data, Wellcome Trust Sanger Institute”.

Tests used:
Test in all cases: cells
Format in all cases: functional, cell-based, Homo sapiens
ACN = settings: Homo sapiens, ACN;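 further: growth inhibition of the human ACN cell line, read out via cell viability testing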
Description: SANGER: Inhibition of human ACN cell growth in a cell viability assay.

KP-N-YS = settings: Homo sapiens, KP-N-YS;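 further: cell viability assay measuring inhibition of cell line growth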
Description: SANGER: Inhibition of human KP-N-YS cell growth in a cell viability assay.

DB = settings: Homo sapiens, DB
Description: SANGER: Inhibition of human DB cell growth in a cell viability assay.

MC116 = settings: Homo sapiens, MC116;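 further: growth inhibition of MC116 cells, read out with a cell viability assay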
Description: SANGER: Inhibition of human MC116 cell growth in a cell viability assay.

MHH-PREB-1 = settings: Homo sapiens, MHH-PREB-1;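 further: cell viability assay measuring inhibition of proliferation of human MHH-PREB-1 cells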
Description: SANGER: Inhibition of human MHH-PREB-1 cell growth in a cell viability assay.

SK-UT-1 = settings: Homo sapiens, SK-UT-1;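 further: growth inhibition of SK-UT-1 cells, measured by a cell viability assay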
Description: SANGER: Inhibition of human SK-UT-1 cell growth in a cell viability assay.

NB5 = settings: Homo sapiens, NB5;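 further: growth inhibition of NB5 cells, read out as cell viability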
Description: SANGER: Inhibition of human NB5 cell growth in a cell viability assay.

LU-134-A = settings: Homo sapiens, LU-134-A
Description: SANGER: Inhibition of human LU-134-A cell growth in a cell viability assay.

A253 cell line = settings: Homo sapiens, A253;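 further: growth inhibition of A253 cells, read out with a cell viability assay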
Description: SANGER: Inhibition of human A253 cell growth in a cell viability assay.

DEL = settings: Homo sapiens, DEL;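 further: growth inhibition of the human DEL cell line, read out with a cell viability assay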
Description: SANGER: Inhibition of human DEL cell growth in a cell viability assay.

RCC10RGB = settings: Homo sapiens, RCC10RGB;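 further: growth inhibition of human RCC10RGB cells, read out by a cell viability assay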
Description: SANGER: Inhibition of human RCC10RGB cell growth in a cell viability assay.

Calu-6 = settings: Homo sapiens, Calu-6;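 further: growth of human Calu-6 cells, read out by a cell viability assay, IC50 marking inhibition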
Description: SANGER: Inhibition of human Calu-6 cell growth in a cell viability assay.

SW872 = settings: Homo sapiens, SW872;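 further: growth inhibition of SW872 cells, read out by a viability assay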
Description: SANGER: Inhibition of human SW872 cell growth in a cell viability assay.

LB2518-MEL = settings: Homo sapiens, LB2518-MEL;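 further: growth inhibition of human LB2518-MEL cells, measured with a cell viability assay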
Description: SANGER: Inhibition of human LB2518-MEL cell growth in a cell viability assay.

SF-539 = settings: Homo sapiens, SF-539;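 further: Read-out is a cell viability assay, with IC50 reflecting inhibition of cell growth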
Description: SANGER: Inhibition of human SF539 cell growth in a cell viability assay.

GI-1 = settings: Homo sapiens, GI-1;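 further: growth inhibition of human GI-1 cells, measured with a cell viability readout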
Description: SANGER: Inhibition of human GI-1 cell growth in a cell viability assay.

SNB-75 = settings: Homo sapiens, SNB-75;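 further: cell viability assay measuring growth inhibition of human SNB-75 cells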
Description: SANGER: Inhibition of human SNB75 cell growth in a cell viability assay.

KE-37 = settings: Homo sapiens, KE-37;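 further: growth inhibition of KE-37 cells, read out with a cell viability assay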
Description: SANGER: Inhibition of human KE-37 cell growth in a cell viability assay.

L-428 = settings: Homo sapiens, L-428
Description: SANGER: Inhibition of human L-428 cell growth in a cell viability assay.

MMAC-SF = settings: Homo sapiens, MMAC-SF;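 further: growth inhibition of human MMAC-SF cells, read out with a cell viability assay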
Description: SANGER: Inhibition of human MMAC-SF cell growth in a cell viability assay.

D-263MG = settings: Homo sapiens, D-263MG
Description: SANGER: Inhibition of human D-263MG cell growth in a cell viability assay.

MZ2-MEL = settings: Homo sapiens, MZ2-MEL;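 further: growth inhibition of MZ2-MEL cells read out with a cell viability assay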
Description: SANGER: Inhibition of human MZ2-MEL cell growth in a cell viability assay.

JAR = settings: Homo sapiens, JAR;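 further: growth inhibition of human JAR cells determined with a cell viability assay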
Description: SANGER: Inhibition of human JAR cell growth in a cell viability assay.

HT = settings: Homo sapiens, HT
Description: SANGER: Inhibition of human HT cell growth in a cell viability assay.

MZ7-mel = settings: Homo sapiens, MZ7-mel;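 further: growth inhibition of human MZ7-mel cells, measured by a cell viability assay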
Description: SANGER: Inhibition of human MZ7-mel cell growth in a cell viability assay.

TE-8 = settings: Homo sapiens, TE-8;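 further: growth inhibition of TE-8 cells, measured with a cell viability readout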
Description: SANGER: Inhibition of human TE-8 cell growth in a cell viability assay.

NB12 = settings: Homo sapiens, NB12;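 further: growth inhibition of human NB12 cells, read out by a cell viability assay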
Description: SANGER: Inhibition of human NB12 cell growth in a cell viability assay.

NCI-H446 = settings: Homo sapiens, NCI-H446;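 further: growth inhibition of NCI-H446 cells determined by a cell viability assay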
Description: SANGER: Inhibition of human NCI-H446 cell growth in a cell viability assay.

NB69 = settings: Homo sapiens, NB69;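 further: growth inhibition of NB69 cells, determined by a cell viability assay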
Description: SANGER: Inhibition of human NB69 cell growth in a cell viability assay.

KURAMOCHI = settings: Homo sapiens, KURAMOCHI;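 further: growth inhibition of KURAMOCHI cells, read out with a cell viability assay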
Description: SANGER: Inhibition of human KURAMOCHI cell growth in a cell viability assay.

ONS-76 = settings: Homo sapiens, ONS-76;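 further: growth inhibition of human ONS-76 cells, read out with a cell viability assay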
Description: SANGER: Inhibition of human ONS-76 cell growth in a cell viability assay.

CW-2 = settings: Homo sapiens, CW-2;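 further: growth inhibition of CW-2 cells, read out by a cell viability assay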
Description: SANGER: Inhibition of human CW-2 cell growth in a cell viability assay.

KU812 cell line = settings: Homo sapiens, KU812;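 further: growth inhibition of KU812 cells, read out with a cell viability assay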
Description: SANGER: Inhibition of human KU812 cell growth in a cell viability assay.

NKM-1 = settings: Homo sapiens, NKM-1;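 further: growth inhibition of NKM-1 cells, read out with a cell viability assay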
Description: SANGER: Inhibition of human NKM-1 cell growth in a cell viability assay.

KG-1 = settings: Homo sapiens, KG-1;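 further: growth inhibition of KG-1 cells, read out by a cell viability assay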
Description: SANGER: Inhibition of human KG-1 cell growth in a cell viability assay.

OMC-1 = settings: Homo sapiens, OMC-1;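 further: growth inhibition of the OMC-1 cell line, measured by a cell viability assay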
Description: SANGER: Inhibition of human OMC-1 cell growth in a cell viability assay.

C8166 = settings: Homo sapiens, C8166;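 further: growth inhibition of human C8166 cells measured by a cell viability assay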
Description: SANGER: Inhibition of human C8166 cell growth in a cell viability assay.

LS-513 = settings: Homo sapiens, LS-513
Description: SANGER: Inhibition of human LS-513 cell growth in a cell viability assay.

LNCaP-Clone-FGC = settings: Homo sapiens, LNCaP-Clone-FGC
Description: SANGER: Inhibition of human LNCaP-Clone-FGC cell growth in a cell viability assay.

JVM-2 = settings: Homo sapiens, JVM-2;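 further: growth inhibition of JVM-2 cells determined by a cell viability assay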
Description: SANGER: Inhibition of human JVM-2 cell growth in a cell viability assay.

MLMA = settings: Homo sapiens, MLMA;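 further: growth inhibition of MLMA cells (human), determined through a cell viability readout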
Description: SANGER: Inhibition of human MLMA cell growth in a cell viability assay.

HCE-T = settings: Homo sapiens, HCE-T;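 further: cell viability assay read-out, reporting inhibition of HCE-T cell growth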
Description: SANGER: Inhibition of human HCE-T cell growth in a cell viability assay.

COLO-668 = settings: Homo sapiens, COLO-668
Description: SANGER: Inhibition of human COLO-668 cell growth in a cell viability assay.

697 = settings: Homo sapiens
Description: SANGER: Inhibition of human 697 cell growth in a cell viability assay.

GT3TKB = settings: Homo sapiens, GT3TKB;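 further: growth inhibition of the cell line, read out with a cell viability assay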
Description: SANGER: Inhibition of human GT3TKB cell growth in a cell viability assay.

Lu-65 = settings: Homo sapiens, Lu-65;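 further: growth inhibition of Lu-65 cancer cells, read out by a cell viability assay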
Description: SANGER: Inhibition of human LU-65 cell growth in a cell viability assay.

TE-1 = settings: Homo sapiens, TE-1;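 further: growth inhibition of the human TE-1 cell line, read out with a cell viability assay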
Description: SANGER: Inhibition of human TE-1 cell growth in a cell viability assay.

A101D = settings: Homo sapiens, A101D;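 further: growth inhibition of the cell line, measured with a viability assay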
Description: SANGER: Inhibition of human A101D cell growth in a cell viability assay.

LC-2-ad = settings: Homo sapiens, LC-2-ad;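 further: growth inhibition of human LC-2-ad cells, read out with a cell viability assay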
Description: SANGER: Inhibition of human LC-2-ad cell growth in a cell viability assay.

CC1(C)CNc2cc(NC(=O)c3cccnc3NCc3ccncc3)ccc21 [MOTESANIB]
IC50 (ACN): > 2000 nM
IC50 (KP-N-YS): > 2000 nM
IC50 (DB): > 2000 nM
IC50 (MC116): > 2000 nM
IC50 (MHH-PREB-1): > 2000 nM
IC50 (SK-UT-1): > 2000 nM
IC50 (NB5): > 2000 nM
IC50 (LU-134-A): > 2000 nM
IC50 (A253 cell line): > 2000 nM
IC50 (DEL): > 2000 nM
IC50 (RCC10RGB): > 2000 nM
IC50 (Calu-6): > 2000 nM
IC50 (SW872): > 2000 nM
IC50 (LB2518-MEL): > 2000 nM
IC50 (SF-539): > 2000 nM
IC50 (GI-1): > 2000 nM
IC50 (SNB-75): > 2000 nM
IC50 (KE-37): > 2000 nM
IC50 (L-428): > 2000 nM
IC50 (MMAC-SF): > 2000 nM
IC50 (D-263MG): > 2000 nM
IC50 (MZ2-MEL): > 2000 nM
IC50 (JAR): > 2000 nM
IC50 (HT): > 2000 nM
IC50 (MZ7-mel): > 2000 nM
IC50 (TE-8): > 2000 nM
IC50 (NB12): > 2000 nM
IC50 (NCI-H446): > 2000 nM
IC50 (NB69): > 2000 nM
IC50 (KURAMOCHI): > 2000 nM
IC50 (ONS-76): > 2000 nM
IC50 (CW-2): > 2000 nM
IC50 (KU812 cell line): > 2000 nM
IC50 (NKM-1): > 2000 nM
IC50 (KG-1): > 2000 nM
IC50 (OMC-1): > 2000 nM
IC50 (C8166): > 2000 nM
IC50 (LS-513): > 2000 nM
IC50 (LNCaP-Clone-FGC): > 2000 nM
IC50 (JVM-2): > 2000 nM
IC50 (MLMA): > 2000 nM
IC50 (HCE-T): > 2000 nM
IC50 (COLO-668): > 2000 nM
IC50 697: > 2000 nM
IC50 (GT3TKB): > 2000 nM
IC50 (Lu-65): > 2000 nM
IC50 (TE-1): > 2000 nM
IC50 (A101D): > 2000 nM
IC50 (LC-2-ad): > 2000 nM

CCN(CC)CCCCNc1ncc2cc(-c3cc(OC)cc(OC)c3)c(NC(=O)NC(C)(C)C)nc2n1 [PD-173074]
IC50 (ACN): > 2000 nM
IC50 (KP-N-YS): > 2000 nM
IC50 (DB): > 2000 nM
IC50 (MC116): > 2000 nM
IC50 (MHH-PREB-1): > 2000 nM
IC50 (SK-UT-1): > 2000 nM
IC50 (NB5): > 2000 nM
IC50 (LU-134-A): > 2000 nM
IC50 (A253 cell line): > 2000 nM
IC50 (DEL): > 2000 nM
IC50 (RCC10RGB): > 2000 nM
IC50 (Calu-6): > 2000 nM
IC50 (SW872): > 2000 nM
IC50 (LB2518-MEL): > 2000 nM
IC50 (SF-539): > 2000 nM
IC50 (GI-1): > 2000 nM
IC50 (SNB-75): > 2000 nM
IC50 (KE-37): > 2000 nM
IC50 (L-428): > 2000 nM
IC50 (MMAC-SF): > 2000 nM
IC50 (D-263MG): 712 nM
IC50 (MZ2-MEL): > 2000 nM
IC50 (JAR): > 2000 nM
IC50 (HT): > 2000 nM
IC50 (MZ7-mel): > 2000 nM
IC50 (TE-8): > 2000 nM
IC50 (NB12): > 2000 nM
IC50 (NCI-H446): > 2000 nM
IC50 (NB69): > 2000 nM
IC50 (KURAMOCHI): > 2000 nM
IC50 (ONS-76): > 2000 nM
IC50 (CW-2): > 2000 nM
IC50 (KU812 cell line): > 2000 nM
IC50 (NKM-1): > 2000 nM
IC50 (KG-1): 51.3 nM
IC50 (OMC-1): > 2000 nM
IC50 (C8166): > 2000 nM
IC50 (LS-513): > 2000 nM
IC50 (LNCaP-Clone-FGC): > 2000 nM
IC50 (JVM-2): > 2000 nM
IC50 (MLMA): > 2000 nM
IC50 (HCE-T): > 2000 nM
IC50 (COLO-668): > 2000 nM
IC50 697: > 2000 nM
IC50 (GT3TKB): > 2000 nM
IC50 (Lu-65): > 2000 nM
IC50 (TE-1): > 2000 nM
IC50 (A101D): > 2000 nM
IC50 (LC-2-ad): > 2000 nM
